A short description of this assay: Peptide was tested for inhibition constant for competitive inhibition using Suc-AAPA-pNa and Pancreatic elastase.

Where a SMILES comes first, the peptide text is derived from it.

With `CSCC[C@H](N)C(=O)N[C@@H](Cc1ccccc1)C(=O)N[C@@H](CC(C)C)C(=O)N[C@@H](C)C(=O)O` [(S)-2-{(S)-2-[(S)-2-((S)-2-Amino-4-methylsulfanyl-butyrylamino)-3-phenyl-propionylamino]-4-methyl-pentanoylamino}-propionic acid] (H-MFLA-OH), the Ki (usually a measure of affinity in units of concentration, obtained from inhibition or displacement) is 1100 µM.

In turn, `CC[C@H](C)[C@H](NC(=O)[C@H](C)NC(=O)[C@H](CCC(=O)O)NC(=O)[C@H](CC(C)C)NC(=O)[C@H](Cc1ccccc1)NC(=O)[C@@H](N)CCSC)C(=O)N1CCC[C@H]1C(=O)N[C@@H](CCSC)C(=O)N[C@@H](CO)C(=O)O` gave a Ki of 5800 µM.

`CC[C@H](C)[C@H](NC(=O)[C@H](CO)NC(=O)[C@H](CCSC)NC(=O)[C@@H]1CCCN1C(=O)[C@@H](NC(=O)[C@H](C)NC(=O)[C@H](CCC(=O)O)NC(=O)[C@H](CC(C)C)NC(=O)[C@H](Cc1ccccc1)NC(=O)[C@@H](N)CCSC)[C@@H](C)CC)C(=O)O` displayed a Ki of 100 µM.
